One data set concerns L. donovani strain LV82. As to the kind of experiment: Murine VL model, parasite burdens in spleen, liver and bone marrow. In kind it is in vivo, Leishmania donovani in BALB/c mice. The procedure:
BALB/c mice were infected by intravenous injection (tail vein, no anesthetic) with 1–2 × 10^7 L. donovani strain LV82 amastigote parasites, obtained from the spleen of an infected hamster. Mice (n = 4/treatment) were treated with PBS pH 7.4 (controls) or APC12 (40 or 80 mg/kg) by intravenous injection (tail vein, no anesthetic, 0.2 mL) on days 7 and 8 post-infection or a single oral dose on day 7 post-infection. Milt was not given orally at a dose of 80 mg/kg because of its potential toxicity. On day 14, parasite burdens in the liver, spleen and bone marrow were determined. Results are from duplicate experiments, however, if a treatment had no significant effect then it […] in subsequent experiments.

The next data set relates to visceral leishmaniasis. The note with it: VL monotherapy, Nepal, 12 months post-treatment; cited from earlier work.
For data set [1] the following is noted: two-component population PK model; listed as Milt; cited from earlier work.
Where [2] appears, read: 40 mg/kg IV, assessed day 14, Experiment 2.
[3] abbreviates: 40 mg/kg oral, day 7 post-infection, assessed day 14, Experiment 1.
The mark [4] stands for this setting: 80 mg/kg oral, assessed day 14, Experiment 2.

“And” between values parts separate entries of the source, which are not always exact repeats. Identical values can stand only once.

For `CCCCCCCCCCCCOP(=O)([O-])OCC[N+](C)(C)C` [APC12, dodecylphosphocholine], in the data set on L. donovani strain LV82 (setting [2]), the “Mean Parasite Burden ± SD Bone Marrow” value is on record as 555 ± 254; the “Mean Parasite Burden ± SD Liver” value turned out to be 434 ± 197; the “Mean Parasite Burden ± SD Spleen” value is recorded as 112 ± 30; the “mean percentage suppression ± SD in parasite burden, Bone Marrow” value came out at 8 ± 14%. Also, in the data set with L. donovani strain LV82 (setting [2]), the “mean percentage suppression ± SD in parasite burden, Liver” value (“mean percentage suppression ± SD … Liver” for short) is 60 ± 11% and 60 ± 19%; the “mean percentage suppression ± SD in parasite burden, Spleen” value (from here on “mean percentage suppression ± SD … Spleen”) is 60 ± 19% and 60 ± 11%. Further, in the data set with L. donovani strain LV82 (setting [3]), the “Mean Parasite Burden ± SD Bone Marrow” value was determined as 210 ± 90; the “Mean Parasite Burden ± SD Liver” value came out at 880 ± 276; the “Mean Parasite Burden ± SD Spleen” value is 275 ± 96; the “mean percentage suppression ± SD in parasite burden, Bone Marrow” value came out at 54 ± 34%. For the same molecule, in the data set on L. donovani strain LV82 (setting [3]), the “mean percentage suppression ± SD … Liver” value is reported as 36 ± 34% and the “mean percentage suppression ± SD … Spleen” value is listed as 8 ± 18%. Also, in the data set with L. donovani strain LV82 (setting [4]), the “Mean Parasite Burden ± SD Bone Marrow” value came out at 607 ± 115; the “Mean Parasite Burden ± SD Liver” value stood at 939 ± 170; the “Mean Parasite Burden ± SD Spleen” value is 257 ± 73; the “mean percentage suppression ± SD in parasite burden, Bone Marrow” value amounted to 2 ± 4%. In addition, in the data set on L. donovani strain LV82 (setting [4]), the “mean percentage suppression ± SD … Liver” value is on record as 27 ± 16% and the “mean percentage suppression ± SD … Spleen” value is listed as 13 ± 27%.
On to `CCCCCCCCCCCCCCCCOP(=O)([O-])OCC[N+](C)(C)C` [APC16, hexadecylphosphocholine, reference compound], for which, in the data set on L. donovani strain LV82 (setting [3]), the “Mean Parasite Burden ± SD Bone Marrow” value is given as 197 ± 157; the “Mean Parasite Burden ± SD Liver” value was 433 ± 46; the “Mean Parasite Burden ± SD Spleen” value came to 73 ± 68; the “mean percentage suppression ± SD in parasite burden, Bone Marrow” value is recorded as 30 ± 35%. Also, in the data set with L. donovani strain LV82 (setting [3]), the “mean percentage suppression ± SD … Liver” value is 40 ± 25% and the “mean percentage suppression ± SD … Spleen” value was 53 ± 31%. Besides, the relapse rate in the data set on visceral leishmaniasis is 20%. Moreover, the “threshold concentration between non-saturable and saturable component” value in data set [1] was 50 μM and 20.4 μg/mL.

These data come from publication PMC7463460, “Structure and Antiparasitic Activity Relationship of Alkylphosphocholine Analogues against Leishmania donovani” (Microorganisms, 2020).
